From PubChem BioAssay AID1996 come the findings set out here.

≈ marks a conversion by molar mass, not a printed value. Where only a bound is given, the exact number is not on record here.

For the data set the following is noted: buffer; pH 7.4; 200.0 µM.
For orientation: solubility (kinetic) means solubility judged after dilution from a stock solution rather than from solid. In turn, `CC(C)(C)c1ccc(C(=S)N2CCN(c3ccccc3)CC2)cc1` came in with a kinetic solubility of less than 0.4 µg/mL.
As for `COC(=O)c1ccc(CNC(=O)CSc2nc3ccccc3[nH]2)cc1`, the figure is 11.6 µg/mL (≈ 32.6 µM); as for `CCCCn1c(N)c(N(CC)C(=O)c2cccc(C)c2)c(=O)[nH]c1=O`, more than 51.7 µg/mL; as for `O=C(NCCCN1CCCC1=O)Nc1ccc([N+](=O)[O-])cc1`, more than 45.9 µg/mL.
With `CC(C)(C)NCCOc1ccc2ccccc2c1`, the kinetic solubility is 26.8 µg/mL (≈ 110 µM).
On to `CN(Cc1ccccc1)C(=O)COc1cccnc1[N+](=O)[O-]`, for which the solubility (kinetic) is more than 45.2 µg/mL.
`Cc1cc(C)n2nc(C(=O)NNC(=O)c3ccccc3)nc2n1`: the kinetic solubility was more than 46.5 µg/mL.
Compound `Cc1ccc(NC(=O)NCC2CC2(Cl)Cl)cc1` (centres undefined) yielded a solubility (kinetic) of 9.1 µg/mL (≈ 33.3 µM).
`c1ccc(-c2ncc(CN3CCN(c4ccccn4)CC3)[nH]2)cc1` showed a solubility (kinetic) of 45.2 µg/mL (≈ 142 µM).
`Cc1ccc(/C(=C\CN2CCCC2)c2ccccn2)cc1.Cl` returned a kinetic solubility of more than 47.2 µg/mL.
`CCCOC(=O)Nc1sc2c(c1C(N)=O)CCCC2` had a kinetic solubility of 1.3 µg/mL (≈ 4.6 µM).
Take `Cc1ccc(CNC(=O)c2ccc[nH]2)cc1`: the solubility (kinetic) is more than 32.1 µg/mL.
The result for `CCOP(=O)(OCC)C(NC(=O)c1ccc(OC)cc1)c1ccccc1` (centres undefined) reads 53.8 µg/mL (≈ 143 µM); that for `CSc1nc(=S)n(-c2ccc([N+](=O)[O-])cc2)c(C)c1C(C)=O`, 48.2 µg/mL (≈ 144 µM).
`O=C(Nc1ccc2c(c1)OCO2)c1cc(-c2ccccc2Cl)on1`: the kinetic solubility is 1.7 µg/mL (≈ 4.96 µM).
The compound `O=C(COC(=O)/C=C/c1ccccc1)NCCc1ccc(F)cc1` came in with a kinetic solubility of 3.5 µg/mL (≈ 10.7 µM).
`CN1C(CC(=O)Nc2ccc(Cl)cc2Cl)c2ccccc2CC1(C)C` (centres undefined) came in with a kinetic solubility of 10 µg/mL (≈ 26.5 µM).
`Cc1ccc2nc(NC(=O)COC(=O)c3ccccn3)sc2c1` came in with a solubility (kinetic) of 32.1 µg/mL (≈ 98.1 µM).
The compound `COc1ccc(C(C)=O)cc1Cc1c(O)[nH]c(=S)[nH]c1=O` showed a solubility (kinetic) of more than 46 µg/mL.
Compound `CC(C)NC(=O)COC(=O)c1ccccc1C(=O)c1ccccc1` had a kinetic solubility of more than 48.8 µg/mL.
On to `Cc1ccc(N=C2NC(=O)/C(=C/c3cccnc3)S2)c(C)c1`, for which the kinetic solubility amounted to 4.8 µg/mL (≈ 15.5 µM).
Turning to `Cc1cccc(C)c1Nc1c(-c2ccccc2O)nc2ncccn12`, the solubility (kinetic) was 0.4 µg/mL (≈ 1.21 µM). Compared with the last compound, the solubility kinetic is about 12-fold lower.
Take `Cc1ccc(NC(=O)C2=CN3CCS(=O)(=O)N=C3C=C2)cc1`: the kinetic solubility stood at 12.7 µg/mL (≈ 40 µM).
`O=C(O)c1ccccc1C(=O)N1CCN(S(=O)(=O)c2cccc(C(F)(F)F)c2)CC1`: the solubility (kinetic) was more than 66.4 µg/mL.
Compound `Cc1onc(-c2ccccc2Cl)c1C(=O)N1CCN(C=O)CC1` had a solubility (kinetic) of more than 50.1 µg/mL.
The result for `Cc1ccc2[nH]c(C(=O)N3CCN(c4cccc(Cl)c4)CC3)cc2c1` reads less than 0.3 µg/mL.
The compound `O=C1C2C3C=CC(C2C(=O)N1CCO)C1C(=O)N(CCO)C(=O)C31` (centres undefined) returned a solubility (kinetic) of more than 50.1 µg/mL.
As for `COc1ccccc1CCNC(=O)c1ccc2nc[nH]c2c1`, the figure is more than 44.3 µg/mL; as for `COc1ccc(OC)c(C(=O)COC(=O)c2cccnc2SC)c1`, 4.2 µg/mL (≈ 12.1 µM).
With `C=CCOC(=O)C1=C(C)OC(N)=C(C#N)C1c1ccco1` (centres undefined), the kinetic solubility is 9.6 µg/mL (≈ 33.5 µM).
The compound `CC(=O)Nc1ccc(S(=O)(=O)NC(C)c2ccccc2)cc1` (centres undefined) returned a kinetic solubility of more than 47.8 µg/mL.
The result for `CCCNC(=S)Nc1ccc(F)cc1F` reads more than 34.5 µg/mL.
As for `NC(=O)c1cc(S(=O)(=O)NCc2ccccc2)cs1`, the figure is more than 44.5 µg/mL; as for `COc1ccc(C(O)Cc2nccn2C)cc1` (centres undefined), more than 34.8 µg/mL.
The result for `O=C(Nc1ccccc1C(=O)N1CCCCC1)c1ccco1` reads more than 44.8 µg/mL; that for `COC(=O)c1ccccc1N1CCS(=O)(=O)CC1`, more than 40.4 µg/mL; that for `O=C(c1cccnc1)N1CCN(S(=O)(=O)c2cccs2)CC1`, more than 50.6 µg/mL.
On to `CC(C)=CCN1CCN(Cc2cccc3c2OCO3)CC1CCO` (centres undefined), for which the kinetic solubility was found to be 36.5 µg/mL (≈ 110 µM).
As for `COc1ccc(C(=O)N=c2sc3ccccc3n2C)cc1OC`, the figure is less than 0.4 µg/mL; as for `Cc1cc(=O)[nH]c(SCC(=O)Nc2nc3ccccc3s2)n1`, more than 49.9 µg/mL; as for `Cc1nc(N)c(CC(Br)CBr)c(Cl)n1` (centres undefined), 49.1 µg/mL (≈ 143 µM).
The compound `CC(C)N(C(=O)COC(=O)c1cccnc1Cl)c1ccccc1` returned a kinetic solubility of more than 49.9 µg/mL.
As for `Nc1cccc2cc(-c3ccccc3)oc12`, the figure is 2.4 µg/mL (≈ 11.5 µM); as for `COc1ccc(NC(=S)N2CCc3ccccc3C2)cc1OC`, 1.9 µg/mL (≈ 5.78 µM); as for `Cc1cc(OC(=O)c2cccc(Cl)c2)c([N+](=O)[O-])c(=O)[nH]1`, 40.9 µg/mL (≈ 133 µM).
As for `CCC(CC)C(=O)Nc1ccncc1`, the figure is 10.9 µg/mL (≈ 56.7 µM); as for `O=C(Nc1csc([N+](=O)[O-])c1)Nc1c(Cl)cccc1Cl`, 1.9 µg/mL (≈ 5.72 µM); as for `O=C(Nc1nc2ccccc2[nH]1)c1cccc(Cl)c1`, less than 0.2 µg/mL.
As for `CCOc1cc(S(=O)(=O)NCc2cccnc2)c(C)cc1C`, the figure is more than 48.1 µg/mL; as for `CCOC(=O)C1=C(COC(=O)CCc2ccc(CC)cc2)NC(=O)NC1C` (centres undefined), 40 µg/mL (≈ 107 µM); as for `COCCCNC(=O)c1cc2cc3cc(OC)ccc3nc2o1`, more than 47.2 µg/mL.
The compound `Cc1cccc(-c2noc(CNC(=O)c3ccc4c(c3)OCO4)n2)c1` returned a kinetic solubility of 2.3 µg/mL (≈ 6.82 µM).
For the compound `C=CCN(c1ccccc1OC)S(=O)(=O)c1cccc(C(=O)NCc2ccco2)c1`, the solubility (kinetic) was found to be 1 µg/mL (≈ 2.34 µM). This solubility kinetic is about 2.3-fold lower than that of the compound before.
As for `COC(=O)Nc1ccc(SCC(=O)c2ccccc2)cc1`, the figure is 3.4 µg/mL (≈ 11.3 µM); as for `COc1ccc(CNC(=O)Nc2cccc(Cl)c2)cc1`, 1.1 µg/mL (≈ 3.78 µM).
`O=C(CC1C(=O)NCCN1C(=O)Nc1ccccc1)Nc1ccc(F)cc1` (centres undefined) registered a solubility (kinetic) of 52.2 µg/mL (≈ 141 µM).
On to `CCOC(=O)c1nc(Nc2ccccc2CC)c2ccccc2n1`, for which the solubility (kinetic) is more than 48.2 µg/mL.
Compound `O=C(c1cc(-c2ccc(F)cc2)nc2ccccc12)N1CCC1` came in with a solubility (kinetic) of more than 46 µg/mL.
As for `O=C(CCC(=O)NCc1ccccc1)NCc1ccccc1`, the figure is 12.7 µg/mL (≈ 42.9 µM); as for `CCOc1cc(/C=N/NC(=O)C2CCCC2)ccc1O`, more than 41.5 µg/mL.
The result for `COC(=O)Cc1c(O)ccn(CCc2c[nH]c3ccc(OC)cc23)c1=O` reads more than 53.5 µg/mL.
Compound `Cc1ccc(S(=O)(=O)n2cccc2C)cc1` came in with a solubility (kinetic) of 5.1 µg/mL (≈ 21.7 µM).
In turn, `O=C(CN1CCN(c2ccc(O)cc2)CC1)N1CCc2ccccc21` registered a kinetic solubility of 5 µg/mL (≈ 14.8 µM).
The result for `Cc1ccc(C(=O)NC(=S)N2CCCCCC2)cc1` reads more than 41.5 µg/mL; that for `O=C(CNC(=O)c1ccccc1Cl)OC1CCOC1=O` (centres undefined), 42.1 µg/mL (≈ 141 µM); that for `CCNC(=S)NC(=NCc1cccnc1)Nc1nc(C)cc(C)n1`, 46.7 µg/mL (≈ 136 µM).
The result for `COc1ccc(-n2c(CN3CCOCC3)nc3ccccc3c2=O)c(OC)c1` reads more than 57.2 µg/mL.
For the compound `COc1nc2c(c(-c3cc(Br)cs3)c1C#N)Cc1ccccc1-2`, the solubility (kinetic) is less than 0.4 µg/mL.
`CC(C)(C)c1ccc(C(=O)Nc2cccnc2)cc1` had a kinetic solubility of 28 µg/mL (≈ 110 µM).
`Cc1csc(NC(=O)c2ccc(S(C)(=O)=O)cc2)n1` returned a solubility (kinetic) of more than 44.5 µg/mL.
Turning to `CCc1cc(=S)n2c([nH]c3ccccc32)c1C#N`, the solubility (kinetic) was determined as 32.6 µg/mL (≈ 129 µM).
As for `CC(NC(=O)CN(C)CC(=O)Nc1ccc(Cl)cc1)c1ccc(F)cc1` (centres undefined), the figure is more than 56.7 µg/mL; as for `COc1ccccc1/C=C(\NC(=O)c1ccccc1)C(=O)NCc1ccco1`, 7 µg/mL (≈ 18.6 µM); as for `O=c1[nH]c2cc(S(=O)(=O)CCO)ccc2o1`, 32.4 µg/mL (≈ 133 µM).
